Measured values: US9982005B2, “Macrolides and methods of their preparation and use” (President and Fellows of Harvard College, priority 2013, dated 2018)
Values after ≈ are worked out from the molar mass of the structure shown. Read-outs that look alike come from different tables or passages of the source.

Tests used:
Type in all cases: cell-based
[1] = tested on: SA101 S. aureus ATCC29213; test: broth dilution MIC, S. aureus SA101; details: Staphylococcus aureus
In short: (§1)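 MICs determined by CLSI standard broth dilution procedures, with azithromycin run as control macrolide.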

[2] = tested on: SA183 S. aureus ermA positive msrA unknown; test: broth dilution MIC, S. aureus SA183; details: Staphylococcus aureus
Description: (§2) We have collected MIC data for a total of 50 novel macrolides that this platform has produced against over 21 unique strains of B. subtilis, E. coli, S. aureus, S. pneumoniae, and H. influenzae, including several multidrug-resistant strains, with a special focus on macrolide resistant mechanisms (vide supra). Azithromycin was included as a control macrolide. CLSI standard procedures for broth dilution MIC determination were used. […] These genotypes can be constitutive or inducible. The finding that C4-epi (unnatural) isomers of the “azaketolide” macrolide class have enhanced activities relative to C4 natural isomers is very exciting.

[3] = tested on: SA418 S. aureus ermA negative msrA positive; test: broth dilution MIC, S. aureus SA418; details: Staphylococcus aureus
Description: as §2

[4] = tested on: SA506 S. aureus ermA positive msrA unknown; test: broth dilution MIC, S. aureus SA506; details: Staphylococcus aureus
Description: as §2

[5] = tested on: SA557 S. aureus ermA unknown msrA positive; test: broth dilution MIC, S. aureus SA557; details: Staphylococcus aureus
Description: as §2

[6] = tested on: SA1707 S. aureus ermA negative msrA positive; test: broth dilution MIC, S. aureus SA1707; details: Staphylococcus aureus
Description: as §2

[7] = tested on: SA1708 S. aureus ermA positive msrA negative; test: broth dilution MIC, S. aureus SA1708; details: Staphylococcus aureus
Description: as §2

[8] = tested on: Spn 106 S. pneumonia ATCC49619; test: broth dilution MIC, S. pneumoniae Spn 106; details: Streptococcus pneumoniae; Spn 106 S. pneumonia ATCC49619; read-out: MIC
Description: as §2

[9] = tested on: Spn160 S. pneumoniae ermB unknown mefA positive; test: broth dilution MIC, S. pneumoniae Spn160; details: Streptococcus pneumoniae
Description: as §2

[10] = tested on: Spn1509 S. pneumoniae ermB positive mefA negative; test: broth dilution MIC, S. pneumoniae Spn1509; details: Streptococcus pneumoniae
Description: as §2

[11] = tested on: Spn1533 S. pneumoniae ermB positive mefA positive; test: broth dilution MIC, S. pneumoniae Spn1533; details: Streptococcus pneumoniae
Description: as §2

[12] = tested on: Spn1537 S. pneumoniae ermB positive mefA positive; test: broth dilution MIC, S. pneumoniae Spn1537; details: Streptococcus pneumoniae
Description: as §2

[13] = tested on: Spn1427 S. pneumoniae ermB positive mefA negative; test: broth dilution MIC, S. pneumoniae Spn1427; details: Streptococcus pneumoniae
Description: as §2

[14] = tested on: HI175 H. influenzae ATCC49247; test: broth dilution MIC, H. influenzae HI175; details: Haemophilus influenzae
Description: as §2

EC107 E. coli ATCC25922 = test: broth dilution MIC, E. coli EC107; details: Escherichia coli, read-out: MIC
In short: as §1

EC878 E. coli tolC = test: broth dilution MIC, E. coli EC878; details: Escherichia coli
In short: as §1

EC882 E. coli imp = test: broth dilution MIC, E. coli EC882; details: Escherichia coli
In short: as §1

[15] = tested on: BS1723 B. subtilis BS168 WT wild type; test: broth dilution MIC, B. subtilis BS1723; details: Bacillus subtilis, BS1723 B. subtilis BS168 WT wild type; read-out: MIC
In short: as §1

BS1725 B. subtilis ermC = test: broth dilution MIC, B. subtilis BS1725; details: Bacillus subtilis
In short: as §1

HI281 H. influenzae = test: broth dilution MIC, H. influenzae HI281; details: Haemophilus influenzae
Description: as §2

[16] = tested on: S. aureus (Newman, clinical isolate); test: MIC, S. aureus Newman; details: Staphylococcus aureus, S. aureus (Neuman, clinical isolate), round 2
Description: as §2

E. coli (MC4100) = test: MIC, E. coli MC4100; details: Escherichia coli, round 2, read-out: MIC
Description: as §2

E. coli strains = test: MIC against E. coli strains (Table M7); details: Escherichia coli, ATCC25922, E. coli ATCC 25922
In short: as §1

S. aureus strains = test: MIC against S. aureus strains (Table M7); details: Staphylococcus aureus
In short: as §1

S. pneumoniae strains = test: MIC against S. pneumoniae strains (Tables M7, M8); details: Streptococcus pneumoniae
Description: CLSI standard procedures for broth dilution MIC determination were used. […] These genotypes can be constitutive or inducible.

E. faecalis strains = test: MIC against E. faecalis strains (Table M8); details: Enterococcus faecalis, E. faecalis 29212
A. baumannii strains = test: MIC against A. baumannii strains (Table M8); details: Acinetobacter baumannii, BAA747, A. baumannii BAA747-1
K. pneumoniae strains = test: MIC against K. pneumoniae strains (Table M8); details: Klebsiella pneumoniae, K. pneumoniae 10031
H. influenzae strains = test: MIC against H. influenzae strains (Table M8); details: Haemophilus influenzae
In short: as §1

[17] = ATCC29213, SA101 S. aureus ATCC29213, read-out: MIC
[18] = SA557 S. aureus ermA unknown msrA positive, read-out: MIC
[19] = Spn160 S. pneumoniae ermB unknown mefA positive, read-out: MIC
[20] = Spn1509 S. pneumoniae ermB positive mefA negative, read-out: MIC

CC[C@H]1OC(=O)C(C)(F)C(=O)[C@@H](C)[C@@H](O[C@@H]2OC(C)CC(N(C)C)C2O)[C@](C)(OC)C[C@@H](C)CN[C@H](C)[C@H]2N(CCCCn3cc(-c4cccc(N)n4)nn3)C(=O)O[C@]12C (some centres unmarked) [FSM-20718]
MIC [1, 17]: 8 µg/mL (≈ 9.44 µM) | MIC [2]: > 32 µg/mL | MIC [3]: 16 µg/mL (≈ 18.9 µM) | MIC [4]: > 32 µg/mL | MIC [5, 18]: 8 µg/mL (≈ 9.44 µM) | MIC [6]: 32 µg/mL (≈ 37.8 µM) | MIC [7]: 16 µg/mL (≈ 18.9 µM) | MIC [8]: 0.0156 to 0.25 µg/mL (≈ 0.0184 to 0.295 µM) | MIC [9, 19]: 0.25 to 1 µg/mL (≈ 0.295 to 1.18 µM) | MIC [10, 20]: 0.5 to 4 µg/mL (≈ 0.59 to 4.72 µM) | MIC [11]: > 32 µg/mL | MIC [12]: > 32 µg/mL | MIC [13]: 4 to 32 µg/mL (≈ 4.72 to 37.8 µM) | MIC [14]: 2 to 16 µg/mL (≈ 2.36 to 18.9 µM) | MIC (EC107 E. coli ATCC25922): > 32 µg/mL | MIC (EC878 E. coli tolC): 1 µg/mL (≈ 1.18 µM) | MIC (EC882 E. coli imp): 0.125 µg/mL (≈ 0.148 µM) | MIC [15]: 8 µg/mL (≈ 9.44 µM) | MIC (BS1725 B. subtilis ermC; BS1725 B. subtilis ermC (+ery)): > 32 µg/mL

CC[C@H]1OC(=O)C(C)(F)C(=O)[C@@H](C)[C@@H](O[C@@H]2OC(C)CC(N(C)C)C2O)[C@](C)(OC)C[C@@H](C)CN[C@H](C)[C@H]2N(CCCCn3cc(-c4nccs4)nn3)C(=O)O[C@]12C (some centres unmarked) [FSM-20721]
MIC [1, 17]: 8 µg/mL (≈ 9.55 µM) | MIC [2]: > 32 µg/mL | MIC [3]: 16 µg/mL (≈ 19.1 µM) | MIC [4]: > 32 µg/mL | MIC [5, 18]: 16 µg/mL (≈ 19.1 µM) | MIC [6]: 16 µg/mL (≈ 19.1 µM) | MIC [7]: 16 µg/mL (≈ 19.1 µM) | MIC [8]: 0.125 to 0.25 µg/mL (≈ 0.149 to 0.298 µM) | MIC [9, 19]: 0.5 to 1 µg/mL (≈ 0.597 to 1.19 µM) | MIC [10, 20]: 8 to 16 µg/mL (≈ 9.55 to 19.1 µM) | MIC [11]: > 32 µg/mL | MIC [12]: > 32 µg/mL | MIC [13]: > 32 µg/mL | MIC [14]: 8 to 32 µg/mL (≈ 9.55 to 38.2 µM) | MIC (EC107 E. coli ATCC25922): > 32 µg/mL | MIC (EC878 E. coli tolC): 1 µg/mL (≈ 1.19 µM) | MIC (EC882 E. coli imp): 0.25 µg/mL (≈ 0.298 µM) | MIC [15]: 8 µg/mL (≈ 9.55 µM) | MIC (BS1725 B. subtilis ermC; BS1725 B. subtilis ermC (+ery)): > 32 µg/mL

CCC[C@@H]1C[C@@H](C(=O)N[C@@H]([C@H]2O[C@H](SC)[C@H](O)[C@@H](O)[C@H]2O)[C@H](C)Cl)N(C)C1 [Clindamycin, clindamycin, reference compound]
MIC ([1]; ATCC29213): 0.125 µg/mL (≈ 0.294 µM) | MIC [2]: > 32 µg/mL | MIC [3]: 0.0625 to 0.125 µg/mL (≈ 0.147 to 0.294 µM) | MIC [4]: > 32 µg/mL | MIC [5]: 0.125 µg/mL (≈ 0.294 µM) | MIC [6]: 0.0625 to 0.125 µg/mL (≈ 0.147 to 0.294 µM) | MIC [7]: 0.25 µg/mL (≈ 0.588 µM) | MIC [8]: 0.0312 µg/mL (≈ 0.0734 µM) | MIC [9, 19]: 0.0156 to 0.0312 µg/mL (≈ 0.0367 to 0.0734 µM) | MIC [10]: 16 to 32 µg/mL (≈ 37.6 to 75.3 µM) | MIC [11]: > 32 µg/mL | MIC [12]: > 32 µg/mL | MIC [13]: > 32 µg/mL | MIC (EC107 E. coli ATCC25922): > 32 µg/mL | MIC (EC878 E. coli tolC): 2 µg/mL (≈ 4.71 µM) | MIC (EC882 E. coli imp): 2 µg/mL (≈ 4.71 µM) | MIC [15]: 1 µg/mL (≈ 2.35 µM) | MIC (BS1725 B. subtilis ermC; BS1725 B. subtilis ermC (+ery)): 4 µg/mL (≈ 9.41 µM) | MIC (BS1725 B. subtilis ermC; BS1725 B. subtilis ermC (−ery)): 2 µg/mL (≈ 4.71 µM)

CC[C@H]1OC(=O)[C@H](C)C(=O)[C@H](C)[C@@H](O[C@@H]2OC(C)CC(N(C)C)C2O)[C@](C)(OC)C[C@@H](C)CN[C@H](C)[C@H]2N(CCCCn3cc(-c4cccc(N)c4)nn3)C(=O)O[C@]12C (some centres unmarked) [FSM-20707]
MIC [2]: > 32 µg/mL | MIC [3]: 1 µg/mL (≈ 1.21 µM) | MIC [4]: > 32 µg/mL | MIC [5, 18]: 0.5 to 1 µg/mL (≈ 0.604 to 1.21 µM) | MIC [6]: 0.5 to 2 µg/mL (≈ 0.604 to 2.42 µM) | MIC [7]: 1 to 2 µg/mL (≈ 1.21 to 2.42 µM) | MIC [8]: 0.0156 to 0.0312 µg/mL (≈ 0.0188 to 0.0377 µM) | MIC [9]: 0.0625 to 0.125 µg/mL (≈ 0.0755 to 0.151 µM) | MIC [10, 20]: 0.25 to 2 µg/mL (≈ 0.302 to 2.42 µM) | MIC [12]: 32 µg/mL (≈ 38.6 µM) | MIC [14]: 1 to 2 µg/mL (≈ 1.21 to 2.42 µM) | MIC (HI281 H. influenzae): 4 µg/mL (≈ 4.83 µM) | MIC (EC107 E. coli ATCC25922): 8 µg/mL (≈ 9.66 µM) | MIC (EC878 E. coli tolC): 0.5 µg/mL (≈ 0.604 µM) | MIC (EC882 E. coli imp): 0.0625 µg/mL (≈ 0.0755 µM) | MIC [15]: 0.5 µg/mL (≈ 0.604 µM) | MIC (BS1725 B. subtilis ermC; BS1725 B. subtilis ermC (+ery)): 8 µg/mL (≈ 9.66 µM) | MIC [16]: 0.5 µg/mL (≈ 0.604 µM) | MIC (E. coli (MC4100)): 4 µg/mL (≈ 4.83 µM) | MIC (E. coli strains): 4 µg/mL (≈ 4.83 µM) | MIC (S. aureus strains; ATCC29213, S. aureus ATCC 29213, read-out: MIC S. aureus (ATCC 29213)): 1 µg/mL (≈ 1.21 µM) | MIC (S. aureus strains; S. aureus 183, read-out: MIC S. aureus (183)): > 32 µg/mL | MIC (S. aureus strains; S. aureus 506, read-out: MIC S. aureus (506)): > 32 µg/mL | MIC (S. aureus strains; S. aureus 1708, read-out: MIC S. aureus (1708)): 1 µg/mL (≈ 1.21 µM) | MIC (S. aureus strains; USA300, S. aureus USA300, read-out: MIC S. aureus (USA300)): 4 µg/mL (≈ 4.83 µM) | MIC (S. pneumoniae strains; S. pneumoniae 160, read-out: MIC S. pneumonae (160)): 0.125 µg/mL (≈ 0.151 µM) | MIC (S. pneumoniae strains; S. pneumoniae 1509, read-out: MIC S. pneumoniae (1509)): 1 µg/mL (≈ 1.21 µM) | MIC (S. pneumoniae strains; S. pneumoniae 1533, read-out: MIC S. pneumoniae (1533)): > 32 µg/mL | MIC (S. pneumoniae strains; S. pneumoniae 1537, read-out: MIC S. pneumoniae (1537)): > 32 µg/mL | MIC (S. pneumoniae strains; read-out: MIC S. pneumoniae (49619)): ≤ 0.0625 µg/mL | MIC (E. faecalis strains): 0.25 µg/mL (≈ 0.302 µM) | MIC (A. baumannii strains): 8 µg/mL (≈ 9.66 µM) | MIC (K. pneumoniae strains): 2 µg/mL (≈ 2.42 µM) | MIC (H. influenzae strains; H. influenzae 49247, read-out: MIC H. influenzae (49247)): 0.5 µg/mL (≈ 0.604 µM) | MIC (H. influenzae strains; H. influenzae 49766, read-out: MIC H. influenzae (49766)): 2 µg/mL (≈ 2.42 µM)
